The experiment deals with human NaV1.8 (Homo sapiens (Human), UniProt Q9Y5Y9). Nature of the experiment: Nav1.8 Qube automated patch-clamp assay. Format: cell-based. Conditions: human NaV1.8 stably expressed in HEK 293 cells; automated 384-well patch-clamp; resting or inactivated state not specified. In outline: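 Human NaV1.8 in HEK293 cells, automated whole-cell patch clamp at room temperature: 1 Hz train of ten 20 ms pulses to 10 mV from −90 mV, repolarization to −67 mV. First- and tenth-pulse peak currents gave resting and inactivated-state IC50 values via Hill fits.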
human NaV1.8, sequence (Q9Y5Y9 whole entry): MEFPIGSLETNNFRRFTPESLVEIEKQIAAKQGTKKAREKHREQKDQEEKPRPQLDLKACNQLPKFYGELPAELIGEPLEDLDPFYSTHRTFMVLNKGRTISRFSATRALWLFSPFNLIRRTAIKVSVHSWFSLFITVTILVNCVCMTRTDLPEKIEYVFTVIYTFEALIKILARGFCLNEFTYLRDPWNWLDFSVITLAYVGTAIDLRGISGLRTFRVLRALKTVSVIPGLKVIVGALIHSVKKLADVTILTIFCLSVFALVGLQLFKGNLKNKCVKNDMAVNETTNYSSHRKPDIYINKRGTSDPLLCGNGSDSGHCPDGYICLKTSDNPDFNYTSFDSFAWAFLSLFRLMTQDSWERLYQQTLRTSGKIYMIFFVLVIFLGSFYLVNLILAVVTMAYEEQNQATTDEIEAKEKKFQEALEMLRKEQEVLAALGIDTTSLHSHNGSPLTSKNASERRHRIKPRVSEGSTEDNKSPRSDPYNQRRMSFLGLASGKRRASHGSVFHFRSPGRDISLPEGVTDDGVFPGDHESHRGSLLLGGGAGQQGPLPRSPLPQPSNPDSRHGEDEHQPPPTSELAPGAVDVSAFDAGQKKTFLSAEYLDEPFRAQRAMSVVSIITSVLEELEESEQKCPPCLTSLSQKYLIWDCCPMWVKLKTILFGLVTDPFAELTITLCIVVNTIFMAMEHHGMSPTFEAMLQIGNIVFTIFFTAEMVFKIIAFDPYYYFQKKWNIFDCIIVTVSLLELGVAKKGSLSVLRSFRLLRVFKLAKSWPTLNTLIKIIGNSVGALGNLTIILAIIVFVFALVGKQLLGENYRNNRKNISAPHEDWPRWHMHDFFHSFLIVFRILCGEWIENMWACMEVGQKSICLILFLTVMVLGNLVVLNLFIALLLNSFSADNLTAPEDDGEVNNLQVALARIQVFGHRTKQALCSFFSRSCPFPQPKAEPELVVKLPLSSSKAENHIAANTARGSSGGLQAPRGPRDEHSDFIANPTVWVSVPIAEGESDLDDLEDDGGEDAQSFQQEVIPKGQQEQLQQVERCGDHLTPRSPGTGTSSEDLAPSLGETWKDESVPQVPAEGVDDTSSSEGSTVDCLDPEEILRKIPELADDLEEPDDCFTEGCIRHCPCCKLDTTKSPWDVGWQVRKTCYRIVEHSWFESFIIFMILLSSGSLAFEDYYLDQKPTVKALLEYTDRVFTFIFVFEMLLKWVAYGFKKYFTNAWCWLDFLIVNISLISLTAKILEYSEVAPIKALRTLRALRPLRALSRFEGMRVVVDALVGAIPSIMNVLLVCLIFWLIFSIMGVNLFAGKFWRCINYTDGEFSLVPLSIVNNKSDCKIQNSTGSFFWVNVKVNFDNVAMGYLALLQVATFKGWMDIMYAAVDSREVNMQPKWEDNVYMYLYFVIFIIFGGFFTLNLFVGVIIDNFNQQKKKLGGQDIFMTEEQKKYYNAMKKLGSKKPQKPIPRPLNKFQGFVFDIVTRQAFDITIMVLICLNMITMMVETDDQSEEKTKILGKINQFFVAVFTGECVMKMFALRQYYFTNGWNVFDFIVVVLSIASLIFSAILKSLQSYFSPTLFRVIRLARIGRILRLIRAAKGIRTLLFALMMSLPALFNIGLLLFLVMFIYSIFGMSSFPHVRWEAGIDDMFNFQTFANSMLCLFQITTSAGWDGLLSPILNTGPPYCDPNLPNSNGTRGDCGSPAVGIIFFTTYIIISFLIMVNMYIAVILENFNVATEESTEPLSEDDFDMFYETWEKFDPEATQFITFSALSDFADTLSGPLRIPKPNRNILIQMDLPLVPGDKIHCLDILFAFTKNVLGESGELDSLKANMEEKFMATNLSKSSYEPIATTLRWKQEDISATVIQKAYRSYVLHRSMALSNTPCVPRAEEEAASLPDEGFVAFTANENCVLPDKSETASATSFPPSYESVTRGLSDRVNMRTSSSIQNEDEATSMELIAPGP
Consider `O=C1NC[C@@H](C(=O)NC(c2ccc(Cl)cc2)c2ncc(Cl)c(C(F)(F)F)n2)N1` (stereo partly drawn) [Example 6, (S)—N-((5-chloro-4-(trifluoromethyl)pyrimidin-2-yl)(4-chlorophenyl)methyl)-2-oxoimidazolidine-4-carboxamide], for which it took 28 nM to reach half-maximal inhibition (IC50). Take `O=C1NC[C@@H](C(=O)NC(c2ccc(C(F)F)nc2)c2ccc(F)c(Cl)c2F)N1` (single isomer, unassigned) [Example 43, (S)-N-((R or S)-(3-chloro-2,4-difluorophenyl)(6-(difluoromethyl)pyridin-3-yl)methyl)-2-oxoimidazolidine-4-carboxamide]: the IC50 (in general, the concentration that inhibits the measured activity by half) was found to be 13 nM.

On to `O=C1NC[C@@H](C(=O)NC(CC2CCCOC2)c2ccc(F)c(Cl)c2F)N1` (single isomer, unassigned) [Example 26B, (S)-N-((R or S)-1-(3-chloro-2,4-difluorophenyl)-2-((R or S)-tetrahydro-2H-pyran-3-yl)ethyl)-2-oxoimidazolidine-4-carboxamide], for which the IC50 stood at 22200 nM.

`CN1CC(C(=O)NC(c2ccc(Cl)cc2)c2ccc(Cl)cc2)NC1=O` (single isomer, unassigned) [Example 10A, (R or S)-N-[bis(4-chlorophenyl)methyl]-1-methyl-2-oxoimidazolidine-4-carboxamide]: inhibition was half-maximal at 1070 nM (IC50).

`O=C1NC[C@@H](C(=O)NC(c2cnc(OCC(F)(F)F)cn2)c2ccc(F)c(Cl)c2F)N1` (single isomer, unassigned) [Example 51A, N—((R or S)-(3-chloro-2,4-difluorophenyl)(5-(2,2,2-trifluoroethoxy)pyrazin-2-yl)methyl)-2-oxoimidazolidine-4-carboxamide]: the IC50 amounted to 9.2 nM. `Cn1nc(C(F)(F)F)cc1C(NC(=O)[C@@H]1CNC(=O)N1)c1ccc(F)c(Cl)c1` (single isomer, unassigned) [Example 31B, (S)-N-((R or S)-(3-chloro-4-fluorophenyl)(1-methyl-3-(tri-fluoromethyl)-1H-pyrazol-5-yl)methyl)-2-oxoimidazolidine-4-carboxamide] yielded an IC50 of 268 nM. In turn, `O=C1NC[C@@H](C(=O)NC(c2ccc(F)c(Cl)c2F)C2CC3(C2)CC(F)(F)C3)N1` (single isomer, unassigned) [Example 37, (S)-N-((R or S)-(3-chloro-2,4-difluorophenyl)(6,6-difluorospiro[3.3]heptan-2-yl)methyl)-2-oxoimidazolidine-4-carboxamide] displayed an IC50 of 11 nM. On to `N#Cc1cccc(C(NC(=O)[C@@H]2CNC(=O)N2)c2ccc(F)c(Cl)c2)n1` (single isomer, unassigned) [Example 12B, (4S)-N-[((R or S)-3-chloro-4-fluorophenyl)(6-cyanopyridin-2-yl)methyl]-2-oxoimidazolidine-4-carboxamide], for which the IC50 amounted to 1420 nM. Compared with the last molecule, the IC50 is about 130-fold higher. Molecule `O=C1NC[C@@H](C(=O)NC(c2cnc(C(F)(F)F)c(Cl)c2)c2ccc(F)c(C(F)(F)F)n2)N1` (single isomer, unassigned) [Example 14B, (4S)-N-{[R or S)-5-chloro-6-(trifluoro-methyl)pyridin-3-yl][5-fluoro-6-(trifluoro-methyl)pyridin-2-yl]methyl}-2-oxoimidazolidine-4-carboxamide] returned a half-maximal inhibitory concentration (IC50) of 21 nM. This IC50 lies about 68-fold lower than the previous one.

Take `N#Cc1ccc(C(NC(=O)[C@@H]2CNC(=O)N2)c2ccc(Cl)c(C(F)(F)F)c2)cc1` (single isomer, unassigned) [Example 60B, (S)-N-((R or S)-(4-chloro-3-(trifluoromethyl)-phenyl)(4-cyanophenyl)-methyl)-2-oxo-imidazolidine-4-carboxamide]: half-maximal inhibition (IC50) was put at 3.8 nM. As for `O=C1NC[C@@H](C(=O)NC(COC2CCC(F)(F)CC2)c2ccc(F)c(Cl)c2)N1` (single isomer, unassigned) [Example 29B, (4S)-N-{1-((R or S)-3-chloro-4-fluorophenyl)-2-[(4,4-difluoro-cyclohexyl)oxy]ethyl}-2-oxoimidazolidine-4-carboxamide], the figure is 161 nM.

The values above are taken from US20230312528A1, “2-OXO-IMIDAZOLIDINE-4-CARBOXAMIDES AS NAV1.8 INHIBITORS” (Merck Sharp & Dohme LLC, priority 2020, published 2023).
